In ChEMBL document CHEMBL4813950, “Comparing the efficacy and selectivity of Ck2 inhibitors. A phosphoproteomics approach” (Eur J Med Chem, 2021):
The source made the active and inactive calls. The rule behind the calls is not given here.

How the values were obtained:
[1] = molecular target: Tight junction protein 2 (Mus musculus) (UniProt Q9Z0U1); test: Inhibition of Tjp2 in mouse C2C12 cells assessed as reduction in phospho-sites occupancy at 4 uM after 5 hrs by SILAC based LC-MS/MS analysis relative to control; assay type: cell-based
[2] = molecular target: Host cell factor 1 (Mus musculus) (UniProt Q61191); test: Inhibition of host cell factor 1 in mouse C2C12 cells assessed as reduction in phospho-sites occupancy at 4 uM after 5 hrs by SILAC based LC-MS/MS analysis relative to control
[3] = molecular target: Catenin alpha-1 (Mus musculus) (UniProt P26231); test: Inhibition of catenin alpha-1 in mouse C2C12 cells assessed as reduction in phospho-sites occupancy at 4 uM after 5 hrs by SILAC based LC-MS/MS analysis relative to control; assay type: cell-based
[4] = molecular target: WD repeat and HMG-box DNA-binding protein 1 (Mus musculus) (UniProt P59328); test: Inhibition of Wdhd1 in mouse C2C12 cells assessed as reduction in phospho-sites occupancy at 4 uM after 5 hrs by SILAC based LC-MS/MS analysis relative to control; assay type: cell-based
[5] = molecular target: Bcl-2-associated transcription factor 1 (Mus musculus) (UniProt Q8K019); test: Inhibition of Bcl-2-associated transcription factor 1 in mouse C2C12 cells assessed as reduction in phospho-sites occupancy at 4 uM after 5 hrs by SILAC based LC-MS/MS analysis relative to control; assay type: cell-based
[6] = molecular target: Autophagy-related protein 9A (Mus musculus) (UniProt Q68FE2); test: Inhibition of Atg9a in mouse C2C12 cells assessed as reduction in phospho-sites occupancy at 4 uM after 5 hrs by SILAC based LC-MS/MS analysis relative to control; assay type: cell-based
[7] = molecular target: Casein kinase 2 (Mus musculus) (UniProt Q60737+P67871+O54833+Q8CH19); test: Inhibition of CK2 in mouse C2C12 cells assessed as reduction in CDC37 phosphorylation at S13 residues at 1 to 4 uM by Western blot analysis; assay type: cell-based; details: dose 1-4 µM
[8] = molecular target: E3 ubiquitin-protein ligase Praja-1 (Mus musculus) (UniProt O55176); test: Inhibition of Pja1 in mouse C2C12 cells assessed as reduction in phospho-sites occupancy at 4 uM after 5 hrs by SILAC based LC-MS/MS analysis relative to control; assay type: cell-based
[9] = molecular target: Survival motor neuron protein (Mus musculus) (UniProt P97801); test: Inhibition of survival motor neuron protein in mouse C2C12 cells assessed as reduction in phospho-sites occupancy at 4 uM after 5 hrs by SILAC based LC-MS/MS analysis relative to control; assay type: cell-based
[10] = molecular target: Chaperone Ric-8A (Mus musculus) (UniProt Q3TIR3); test: Inhibition of Ric8a in mouse C2C12 cells assessed as reduction in phospho-sites occupancy at 4 uM after 5 hrs by SILAC based LC-MS/MS analysis relative to control; assay type: cell-based
[11] = molecular target: Phosducin-like protein 3 (Mus musculus) (UniProt Q8BVF2); test: Inhibition of Phosducin-like protein 3 in mouse C2C12 cells assessed as reduction in phospho-sites occupancy at 4 uM after 5 hrs by SILAC based LC-MS/MS analysis relative to control; assay type: cell-based
[12] = molecular target: Dual E2 ubiquitin-conjugating enzyme/E3 ubiquitin-protein ligase BIRC6 (Mus musculus) (UniProt O88738); test: Inhibition of Birc6 in mouse C2C12 cells assessed as reduction in phospho-sites occupancy at 4 uM after 5 hrs by SILAC based LC-MS/MS analysis relative to control; assay type: cell-based
[13] = molecular target: Cyclin-dependent kinase 4 (Mus musculus) (UniProt P30285); test: Inhibition of Cdk4 in mouse C2C12 cells assessed as reduction in phospho-sites occupancy at 4 uM after 5 hrs by SILAC based LC-MS/MS analysis relative to control; assay type: cell-based
[14] = test system: Golgi-specific brefeldin A-resistance guanine nucleotide exchange factor 1 (Mus musculus); test: Inhibition of Gbf1 in mouse C2C12 cells assessed as reduction in phospho-sites occupancy at 4 uM after 5 hrs by SILAC based LC-MS/MS analysis relative to control
[15] = molecular target: Coiled-coil domain-containing protein 43 (Mus musculus) (UniProt Q9CR29); test: Inhibition of Ccdc43 in mouse C2C12 cells assessed as reduction in phospho-sites occupancy at 4 uM after 5 hrs by SILAC based LC-MS/MS analysis relative to control; assay type: cell-based
[16] = molecular target: Nucleoprotein TPR (Mus musculus) (UniProt F6ZDS4); test: Inhibition of nucleoprotein TPR in mouse C2C12 cells assessed as reduction in phospho-sites occupancy at 4 uM after 5 hrs by SILAC based LC-MS/MS analysis relative to control; assay type: cell-based
Kinectin (Mus musculus) = Kinectin (Mus musculus) (UniProt Q61595); test: Inhibition of Ktn1 in mouse C2C12 cells assessed as reduction in phospho-sites occupancy at 4 uM after 5 hrs by SILAC based LC-MS/MS analysis relative to control; assay type: cell-based
[17] = molecular target: Transcriptional regulator ATRX (Mus musculus) (UniProt Q61687); test: Inhibition of ATRX in mouse C2C12 cells assessed as reduction in phospho-sites occupancy at 4 uM after 5 hrs by SILAC based LC-MS/MS analysis relative to control; assay type: cell-based
[18] = molecular target: Desmoyokin (Mus musculus) (UniProt Q61484); test: Inhibition of AHNAK in mouse C2C12 cells assessed as reduction in phospho-sites occupancy at 4 uM after 5 hrs by SILAC based LC-MS/MS analysis relative to control; assay type: cell-based
[19] = molecular target: DNA topoisomerase 2-beta (Mus musculus) (UniProt Q64511); test: Inhibition of DNA topoisomerase 2-beta in mouse C2C12 cells assessed as reduction in phospho-sites occupancy at 4 uM after 5 hrs by SILAC based LC-MS/MS analysis relative to control; assay type: cell-based
[20] = molecular target: LIM domain and actin-binding protein 1 (Mus musculus) (UniProt Q9ERG0); test: Inhibition of Lima1 in mouse C2C12 cells assessed as reduction in phospho-sites occupancy at 4 uM after 5 hrs by SILAC based LC-MS/MS analysis relative to control; assay type: cell-based
[21] = molecular target: Nucleolar RNA helicase 2 (Mus musculus) (UniProt Q9JIK5); test: Inhibition of Ddx21 in mouse C2C12 cells assessed as reduction in phospho-sites occupancy at 4 uM after 5 hrs by SILAC based LC-MS/MS analysis relative to control; assay type: cell-based
[22] = molecular target: Enhancer of mRNA-decapping protein 4 (Mus musculus) (UniProt Q3UJB9); test: Inhibition of Edc4 in mouse C2C12 cells assessed as reduction in phospho-sites occupancy at 4 uM after 5 hrs by SILAC based LC-MS/MS analysis relative to control; assay type: cell-based
[23] = molecular target: Dihydropyrimidinase-related protein 3 (Mus musculus) (UniProt Q62188); test: Inhibition of Dihydropyrimidinase-related protein 3 in mouse C2C12 cells assessed as reduction in phospho-sites occupancy at 4 uM after 5 hrs by SILAC based LC-MS/MS analysis relative to control; assay type: cell-based
[24] = molecular target: EH domain-containing protein 2 (Mus musculus) (UniProt Q8BH64); test: Inhibition of Ehd2 in mouse C2C12 cells assessed as reduction in phospho-sites occupancy at 4 uM after 5 hrs by SILAC based LC-MS/MS analysis relative to control; assay type: cell-based

fold change (FC) [1]: 3.31 | fold change (FC) [2]: 1.56 | fold change (FC) [3]: 1.59 | fold change (FC) [4]: 1.66 | fold change (FC) [5]: 1.58 | fold change (FC) [6]: 1.8 | inhibition [7]: Active | fold change (FC) [8]: 2.53 | fold change (FC) [10]: 1.93 | fold change (FC) [11]: 4.01 | fold change (FC) [12]: 1.62 | fold change (FC) [13]: 3.97 | fold change (FC) [14]: 2.55 | fold change (FC) [15]: 2.68 | fold change (FC) [16]: 1.51 | fold change (FC) (Kinectin (Mus musculus)): 1.98 | fold change (FC) [17]: 2.83 | fold change (FC) [18]: 3.22 | fold change (FC) [19]: 1.6 | fold change (FC) [20]: 2.39 | fold change (FC) [21]: 1.66 | fold change (FC) [22]: 2.17 | fold change (FC) [23]: 3.25 | fold change (FC) [24]: 2.18
SMILES: COc1cc(/C=N/n2c(SC)nnc2-c2ccccc2)c(Br)cc1O
fold change (FC) [9]: 1.52
